Experiment [1] deals with human emopamil binding protein and human 7-dehydrocholesterol reductase (hEBP-DHCR7) (Homo sapiens (Human), UniProt Q15125). The experiment can be described thus: hEBP-DHCR7 radioligand binding assay (filter binding, membranes of co-expressing HEK293 cells). To be noted: competition with [3H] radioligand, 8 doses 0.06 to 5000 nM, Ki calculated from IC50. The method, then: Membrane Preparation: human emopamil binding protein and human 7-dehydrocholesterol reductase co-expressing cells were generated by transient transfecting host human embryonic kidney (HEK) 293 cells with 2 DNA constructs containing each protein's coding sequence. Cells were suspension cultured at 37° C. with 5% CO2 in […] 293 Expression Medium (Thermofisher). Whole cell membrane was prepared by harvesting the cell pellet, adding cold membrane buffer (50 mM Tris, pH7.5, 1× Roche COMPLETE EDTA-free protease inhibitor cocktail) 10 times volume of the cell pellets weight, lysing cell pellet on ice by using Dounce homogenizer, spinning at 200 g 4° C. for 15 min, collecting supernatant and spinning again at 25000 g 4° C. for 50 min, transferring pellet to Dounce homogenizer, re-suspending pellet by homogenizing in membrane buffer on ice to reach ˜25 mg/mL, then keeping whole cell membrane aliquots at −80° C.
Compounds were prepared in a 96-well U bottom plate (Corning Cat #7007) using an Echo550 machine and 10 mM compound DMSO stock solution, followed by an 8-dose 5-fold serial dilutions protocol with final testing compound concentration ranging from 0.06 to 5000 nM, with DMSO back fill to 100 nL/well and n=2. […] The UniFilter-96 GF/B plates (PerkinElmer Cat #6005177) were pre-treated by adding 50 μl/well of 0.3% (v/v) Polyethylenimine (PEI) (branched, Sigma Cat #408727) to UniFilter-96 GF/B plates. The plates were sealed and incubated at 4° C. for 3 hrs. Then, the plates were washed with ice-cold assay buffer 3 times. The radioligand binding assay was prepared by adding assay buffer diluted hEBP-DHCR7 membrane at 66.7 µg/ml×150 μl/well into the 96-well compound plate to reach 10 μg membrane per well. Then, the assay buffer diluted [3H]—(S)-6-(2-Methyl-3-(6-(trifluoromethyl)pyridin-3-yl)propyl)-2-thia-6-azaspiro[3.4]octane 2,2-dioxide (Moravek, Cat #MT-1003106) was added at 25 nM×50 μl/well. Following this, the plate was centrifuged at 1000 rpm for 30 secs. The plate was then sealed and agitated at 600 rpm at 22° C. for 5 min, and then incubated at 22° C. for 3 hrs. The incubation was stopped by transferring the binding solution to the pre-treated UniFilter-96 GF/B plate, vacuum filtrated, and then washed four times with ice-cold assay buffer. Following this, the plates were dried at 37° C. for 45 min. The plates were then sealed at the bottom. 40 µl/well of scintillation cocktail was added to the plates. A MicroBeta2 microplate counter was then used to read the plate and analyze the data. For reference and test compounds, the results are expressed as % Inhibition, using the normalization equation: N=100−100×(U−C2)/(C1−C2), where U is the unknown value, C1 is the average of high controls, and C2 is the average value of low controls.

Experiment [2] deals with zymostenol accumulation (EBP) in EpiSC-derived OPCs. The experiment can be described thus: GC/MS-based sterol profiling, zymostenol accumulation in EpiSC-derived OPCs. Format: cell-based, mouse. To be noted: Mus musculus, 24 h, EpiSC-derived OPCs, 24 hr, 8 doses from 0.15 nM to 333 nM; read-out: Mouse Zymostenol GCMS EC50. The method, then:
To assess effects of treatments on OPCs, all treatments were assayed in two or more independent platings of epiblast stem cell-derived OPCs (EpiSC). EpiSC-derived OPCs were obtained using in vitro differentiation protocols and culture conditions described previously (Najm et al, 2011, Nature Methods). OPCs were expanded and frozen down in aliquots. OPCs were thawed into growth conditions for at least one passage before use in further assays.
Sterols were monitored using a modified Folch wash protocol (Hubler et al, 2018, Nature). EpiSC-derived OPCs were plated at 100,000 cells per well in PO- and laminin-coated 96-well plates in N2B27 media without growth factors. After 24 hours, cells were rinsed with saline and plates were frozen. Cholesterol-d7 standard was then added to each well before drying under nitrogen stream and derivatization with 55 μl of bis(trimethylsilyl) trifluoroacetamide. After derivatization, 2 μl were analyzed by gas chromatography/mass spectrometry using an Agilent 5973 Network Mass Selective Detector equipped with a 6890 gas chromatograph system and a HP-5MS capillary column (30 m×0.25 mm×[…]). Samples were analyzed in full scan mode using electron impact ionization; ion fragment peaks were integrated to calculate sterol abundance, and quantitation was relative to cholesterol-d7. The following ion fragments were used to quantitate each metabolite: cholesterol-d7 (465), FF-Mas (482), cholesterol (368), zymostenol (458), zymosterol (456), Desmosterol (456, 343), 7-dehydrocholesterol (456, 325), lanosterol (393), lathosterol (458), 14-dehydrozymostenol (456, 351). […] All standards were obtained from Avanti Polar Lipids unless otherwise indicated. Calibration curves were generated by injecting varying concentrations of sterol standards and maintaining a fixed amount of cholesterol-D7. For normalized zymostenol accumulation results, the total amount of zymostenol measured after drug treatment was divided by the total amount of zymostenol accumulated after 24 hr treatment with 100 nM positive control reference.

Chain of human emopamil binding protein and human 7-dehydrocholesterol reductase (hEBP-DHCR7) (Q15125 whole entry): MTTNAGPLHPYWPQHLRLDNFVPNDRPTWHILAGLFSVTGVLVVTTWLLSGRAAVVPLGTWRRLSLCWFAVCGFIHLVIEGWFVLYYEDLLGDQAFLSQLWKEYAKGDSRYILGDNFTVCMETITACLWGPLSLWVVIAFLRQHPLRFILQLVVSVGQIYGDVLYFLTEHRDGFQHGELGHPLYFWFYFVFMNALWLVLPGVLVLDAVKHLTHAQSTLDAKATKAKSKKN

For `CC(C)n1nc(-c2ccc(C(F)(F)F)nc2)cc1[C@H]1CC[C@@H](N2CCN(CCO)CC2)C1` (single isomer, unassigned) [89*], in experiment [1], the Ki (commonly the dissociation constant of the complex between target and ligand, obtained from inhibition or displacement) is 42.4 nM. Further, the EC50 – broadly, the concentration giving half of the maximal effect – in experiment [2] turned out to be 21.9 nM.

For `CC(C)n1nc(-c2ccnc(C(F)(F)F)n2)cc1[C@H]1[C@@H]2C[C@@H](N3CCOC[C@@H]3C)C[C@@H]21` [Compound 100, (S)-4-((1R,3s,5S,6S)-6-(1-Isopropyl-3-(2-(trifluoromethyl)pyrimidin-4-yl)-1H-pyrazol-5-yl)bicyclo[3.1.0]hexan-3-yl)-3-methylmorpholine], in experiment [1], the Ki is 11 nM. In addition, the EC50 in experiment [2] was determined as 5.99 nM.

As for `CC(C)n1nc(-c2cnc(C(F)(F)F)nc2)nc1[C@@H]1CC[C@@H](N2CCO[C@H](C)C2)C1` [Compound 149, (R)-4-((1R,3R)-3-(1-Isopropyl-3-(2-(trifluoromethyl)pyrimidin-5-yl)-1H-1,2,4-triazol-5-yl)cyclopentyl)-2-methylmorpholine], the Ki in experiment [1] is 68.3 nM. Also, in experiment [2], the EC50 is 129 nM.

On to `CC(C)n1nc(-c2cccc(OC(F)F)c2)nc1[C@H]1[C@@H]2C[C@@H](N3CCOC[C@H]3C)C[C@@H]21` [Compound 77, (R)-4-((1R,3s,5S,6R)-6-(3-(3-(Difluoromethoxy)phenyl)-1-isopropyl-1H-1,2,4-triazol-5-yl)bicyclo[3.1.0]hexan-3-yl)-3-methylmorpholine], for which, in experiment [1], the Ki was 129 nM. Besides, the EC50 in experiment [2] was determined as 191 nM.

`CC(C)n1nc(-c2cnc(C(F)(F)F)nc2)nc1[C@@H]1CC[C@H](N2CCO[C@H](C)C2)C1` [Compound 148, (R)-4-((1S,3R)-3-(1-Isopropyl-3-(2-(trifluoromethyl)pyrimidin-5-yl)-1H-1,2,4-triazol-5-yl)cyclopentyl)-2-methylmorpholine]: in experiment [1], the Ki was 22.2 nM. The EC50 in experiment [2] was determined as 13.4 nM.

`CC(C)n1nc(-c2cnc(C(F)(F)F)nc2)nc1[C@@H]1CC[C@@H](N2CCO[C@@H](C)C2)C1` [Compound 151, (S)-4-((1R,3R)-3-(1-Isopropyl-3-(2-(trifluoromethyl)pyrimidin-5-yl)-1H-1,2,4-triazol-5-yl)cyclopentyl)-2-methylmorpholine]: the Ki in experiment [1] is 505 nM. In experiment [2], the EC50 was 129 nM.

Regarding `CC[C@@H]1CN([C@@H]2CC[C@H](c3nc(-c4cncc(Cl)c4)nn3C(C)C)C2)CCO1` [Compound 129, (R)-4-((1R, 3S)-3-(3-(5-Chloropyridin-3-yl)-1-isopropyl-1H-1,2,4-triazol-5-yl)cyclopentyl)-2-ethylmorpholine], the Ki in experiment [1] was 23.2 nM. In addition, in experiment [2], the EC50 amounted to 2.79 nM.

As to `CC(C)n1nc(-c2cnc(C(F)(F)F)nc2)nc1[C@H]1CC[C@H](N2CCO[C@H](C)C2)C1` [Compound 145, (R)-4-((1S,3S)-3-(1-isopropyl-3-(2-(trifluoromethyl)pyrimidin-5-yl)-1H-1,2,4-triazol-5-yl)cyclopentyl)-2-methylmorpholine], the Ki in experiment [1] is 299 nM. Further, the EC50 in experiment [2] amounted to 83.5 nM.

Take `CC(C)n1nc(-c2cccc(C(F)(F)F)n2)cc1[C@H]1[C@@H]2C[C@H](N3CCN(C4CCC4)CC3)C[C@@H]21` [Compound 85, 1-Cyclobutyl-4-((1R,3r,5S,6r)-6-(1-isopropyl-3-(6-(trifluoromethyl)pyridin-2-yl)-1H-pyrazol-5-yl)bicyclo[3.1.0]hexan-3-yl)piperazine]: the Ki in experiment [1] is 472 nM. The EC50 in experiment [2] turned out to be 279 nM.

In the case of `CC(C)n1nc(-c2cccc(C(F)(F)F)n2)nc1[C@H]1CC[C@H](N2CCOC[C@H]2C)CC1` (single isomer, unassigned) [80*], in experiment [1], the Ki was 528 nM. The EC50 in experiment [2] was 112 nM.

For `CC[C@H]1CN([C@@H]2CC[C@H](c3nc(-c4cnc(C(F)(F)F)c(F)c4)nn3C(C)C)C2)CCO1` [Compound 147, (S)-2-Ethyl-4-((1R,3S)-3-(3-(5-fluoro-6-(trifluoromethyl)pyridin-3-yl)-1-isopropyl-1H-1,2,4-triazol-5-yl)cyclopentyl)morpholine], in experiment [1], the Ki is 1740 nM. Further, the EC50 in experiment [2] amounted to 14.5 nM.

Values taken from patent US20260008775A1, “AZOLE MODULATORS OF CHOLESTEROL BIOSYNTHESIS AND THEIR USE FOR PROMOTING REMYELINATION” (GENENTECH, INC., priority 2022, published 2026).
